Results: patent US20220275534A1, “Peptide Library Production Method” (The University of Tokyo, priority 2018, published 2022)
Positions of bridges follow the written chain, without caps; N, C: chain ends. Non-standard residues stand in square brackets, D forms with d. No end group written: not given here.

Experiments:
[1] = tested on: KgpF; experiment: Prenylation of translated thioether-closed artificial cyclic peptides with KgpF, MALDI-TOF-MS analysis (Examples 1-9; 37° C., 18 hours); format: biochemical, Microcystis aeruginosa; design: key to DMAPP adduct 0 / DMAPP adduct 1: 0: N/A; 1: Nothing; 2: Very weak intensity; 3: Medium intensity; 4: Strong intensity; conditions: 2 mM DMAPP; for prenylation modification with KgpF (MALDI-TOF-MS): Example 3: 160 or 580 μM KgpF; for DMAPP adduct 1: MALDI-TOF-MS peak intensity of singly prenylated peptide; for DMAPP adduct 1 / DMAPP adduct 0: 160 μM KgpF; for DMAPP adduct 0: MALDI-TOF-MS peak intensity of unmodified peptide
Experimental: With regards to each of KgpF and OltF, heterogeneous co-expression of a gene synthesized after optimizing the codon of a gene derived from a producing strain was performed in Escherichia coli, followed by purification to obtain a prenylation enzyme.
The analysis was performed using UltrafleXtreme (Bruker Daltonics) or Autoflex II (Bruker Daltonics) and peptide calibration standard II (Bruker Daltonics).
In short, six kinds in total of peptides were obtained by translation and synthesis under (Conditions 1) of the artificial translation system developed by the present inventors. The peptides thus obtained were then reacted with 14.7 μM KgpF at 37° C. for 18 hours in the system shown in (Conditions 2). “DMAPP” used in (Conditions 2) is dimethylallyl pyrophosphoric acid.
(Conditions 1) • FIT system: v7s/v8.0.3 • 19aa-Met: 0.5 mM • ClAc-D or L-Trp-tRNA^fMetCUA: 90 μM • Reaction: 37° C., 60 min. • Scale: […] scale
(Conditions 2) • Translated mixture amount: 2.5 μL (mixture obtained under (Conditions 1)) • KgpF: 14.7 μM • DMAPP: 2 mM • Total amount: 15.7 μL • Reaction: 37° C., 18 hours
The YG280 sequences having the steric configuration of the N terminal Trp serving as an initiation residue of D-form and those of L-form were synthesized, so that two kinds of peptides were prepared in total. These two kinds of artificial cyclic peptides were obtained by translation and synthesis in the artificial translation system (Conditions 3) developed by the present inventors. The peptides thus obtained were then reacted with 53, 160, and 580 μM KgpF in a system shown in (Conditions 4) at 37° C. for 18 hours.
(Conditions 3) • FIT system: v7s/v8.0.3 • 19aa-Met: 0.5 mM • ClAc-D or L-Trp-tRNA^fMetCUA: 120 μM • Reaction: 37° C., 3 hours • Scale: 2.5 μL scale
(Conditions 4) • Translated mixture amount: 2.5 μL (mixture obtained under (Conditions 3)) • KgpF: 53, 160, 580 μM • DMAPP: 2 mM • Reaction: 37° C., 18 hours
(§1) The above three kinds of artificial cyclic peptides were obtained by translation and synthesis in the artificial translation system (Conditions 5) developed by the present inventors. The peptides thus obtained were then reacted with KgpF in the system shown below in (Conditions 6) at 37° C. for 18 hours.
(Conditions 5) • FIT system: v7s/v8.0.3 • 19aa-Met: 0.5 mM • ClAc-D or L-Trp-tRNA^fMetCUA: 90 μM • Reaction: 37° C., 60 min. • Scale: 2.5 μL scale
(Conditions 6) • Translated mixture amount: 2.5 μL (mixture obtained under (Conditions 5)) • KgpF: 160 or 580 μM • DMAPP: 2 mM • Reaction: 37° C., 18 hours
as §1, with “six” for “three”, “7)” for “5)”, “with 160 μM” for “with”, “shown” for “shown below”, “8)” for “6)”
(Conditions 7) • FIT system: v7s/v9.1 • 19aa-Met: 0.5 mM • ClAc-D-Tyr-tRNA^fMetCUA: 90 μM • Reaction: 37° C., 60 min. • Scale: 2.5 μL scale
(Conditions 8) • Translated mixture amount: 2.5 μL (mixture obtained under (Conditions 7)) • KgpF: 160 μM • DMAPP: 2 mM • Reaction: 37° C., 18 hours
as §1, with “9)” for “5)”, “with 160 μM” for “with”, “shown” for “shown below”, “10)” for “6)”
(Conditions 9) • FIT system: v7s/v9.1 • 19aa-Met: 0.5 mM • ClAc-D-Tyr-tRNA^fMetCUA: 90 μM • Reaction: 37° C., 60 min. • Scale: 2.5 μL scale
(Conditions 10) • Translated mixture amount: 2.5 μL (mixture obtained under (Conditions 9)) • KgpF: 160 μM • DMAPP: 2 mM • Reaction: 37° C., 18 hours
The above artificial cyclic peptides were obtained by translation and synthesis in the artificial translation system (Conditions 11) developed by the present inventors. […]

[2] = tested on: KgpF v 3.1; experiment: Prenylation of artificial cyclic peptides with 10 μM KgpF v 3.1 (Example 11; Table 7); format: biochemical, Microcystis aeruginosa; design: key: 5: strong intensity; 4: medium intensity; 3: weak intensity; 2: very weak intensity; 1: no peak; N/A: not observed; conditions: KgpF v 3.1 10 μM
Experimental: Reaction of the artificial cyclic peptide shown in Table 7 was made under conditions similar to (Conditions 11) and (Conditions 12) except that v8s/v11.1 was used as FIT system, KgpF v 3.1 was used as a prenylation modification enzyme, and the concentration of the KgpF v 3.1 was set at 10 μM. Here, KgpF v 3.1 is an enzyme having a higher purification degree and more improved specific activity than KgpF used under (Conditions 12).

[3] = tested on: OltF v 2.1; experiment: Modification test of thioether-closed artificial cyclic peptides with 9.13 μM OltF v 2.1 (Example 16; Tables 11 and 12); format: biochemical, Planktothrix; design: key: 5: strong intensity; 4: medium intensity; 3: weak intensity; 2: very weak intensity; 1: no peak; N/A: not observed; conditions: Table 11; OltF v 2.1 9.13 μM, DMAPP 2 mM, 37° C., 18 hours
Experimental: The artificial cyclic peptides shown in Table 11 and Table 12 were obtained by translation and synthesis in the artificial translation system (Conditions 23) developed by the present inventors. The peptides thus obtained were then reacted with 9.13 μM OltF in the system shown in (Conditions 24) at 37° C. for 18 hours. It is to be noted that OltF v 2.1 is an enzyme prepared from OltF used in (Conditions 22) while changing a purification manner.
(Conditions 23) • FIT system: v8s/v11.1 • 19aa-Met: 0.5 mM • ClAc-D or L-Tyr-tRNA^fMetCUA: 90 μM • Reaction: 37° C., 60 min. • Scale: 2.5 μL scale
(Conditions 24) • Translated mixture amount: 2.5 μL (mixture obtained under (Conditions 23)) • OltF v 2.1: 9.13 μM • DMAPP: 2 mM • Reaction: 37° C., 18 hours

[4] = tested on: KgpF; experiment: Prenylation of artificial cyclic peptides containing VW or WG sequence with 60 μM KgpF (Examples 12 and 13; Tables 8, 9, 10); format: biochemical, Microcystis aeruginosa; design: key: 5: strong intensity; 4: medium intensity; 3: weak intensity; 2: very weak intensity; 1: no peak; N/A: not observed; conditions: KgpF 60 μM, DMAPP 2 mM, 37° C., 18 hours
Experimental: (§2) The artificial cyclic peptides shown in Table 8 and Table 9 were obtained by translation and synthesis in the artificial translation system (Conditions 15) developed by the present inventors. The peptides thus obtained were then reacted with 60 μM KgpF in the system shown in (Conditions 16) at 37° C. for 18 hours.
(Conditions 15) • FIT system: v8s/v11.1 • 19aa-Met: 0.5 mM • ClAc-D-Tyr-tRNA^fMetCUA: 90 μM • Reaction: 37° C., 60 min. • Scale: 2.5 μL scale
(Conditions 16) • Translated mixture amount: 2.5 μL (mixture obtained under (Conditions 15)) • KgpF: 60 μM • DMAPP: 2 mM • Reaction: 37° C., 18 hours
as §2, with “10” for “8 and Table 9”, “17)” for “15)”, “18)” for “16)”
(Conditions 17) • FIT system: v8s/v11.1 • 19aa-Met: 0.5 mM • ClAc-D-Tyr-tRNA^fMetCUA: 90 μM • Reaction: 37° C., 60 min. • Scale: 2.5 μL scale
(Conditions 18) • Translated mixture amount: 2.5 μL (mixture obtained under (Conditions 17)) • KgpF: 60 μM • DMAPP: 2 mM • Reaction: 37° C., 18 hours

[5] = Table 8, VW sequence, various ring sizes
[6] = Table 9, VW sequence, various ring sizes
[7] = Table 10, W at various positions

KgpF, sequence (as listed by the source): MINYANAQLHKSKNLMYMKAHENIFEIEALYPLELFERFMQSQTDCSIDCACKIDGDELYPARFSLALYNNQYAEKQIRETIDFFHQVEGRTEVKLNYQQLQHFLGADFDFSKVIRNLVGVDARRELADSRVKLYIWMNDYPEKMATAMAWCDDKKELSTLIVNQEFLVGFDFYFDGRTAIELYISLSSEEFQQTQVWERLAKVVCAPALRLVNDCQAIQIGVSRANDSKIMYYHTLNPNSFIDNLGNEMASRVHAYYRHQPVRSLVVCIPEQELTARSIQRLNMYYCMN
OltF v 2.1, sequence (as listed by the source): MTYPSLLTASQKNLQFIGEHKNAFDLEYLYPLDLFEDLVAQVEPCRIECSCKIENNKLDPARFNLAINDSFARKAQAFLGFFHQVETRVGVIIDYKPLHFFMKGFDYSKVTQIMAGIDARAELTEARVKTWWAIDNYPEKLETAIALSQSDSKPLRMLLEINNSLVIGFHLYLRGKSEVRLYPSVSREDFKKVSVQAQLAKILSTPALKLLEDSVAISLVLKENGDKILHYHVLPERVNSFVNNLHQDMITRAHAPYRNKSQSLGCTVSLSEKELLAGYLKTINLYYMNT

YG290-CM11: peptide having no Trp residue in the peptide chain (random region) (Ac-[dW]CDVSGRFGYFPC; thioether (positions not given here); also: thioether ring to Cys2 or Cys13)
prenylation modification with KgpF (MALDI-TOF-MS) [1]: no modified product was found

YG291-PaktiL2 ({CH2CO}-[dY]WILITWPLVRRKC; thioether N-14 (inferred))
Peak intensity, The number of prenyl groups added 0 [2]: 4 | Peak intensity, The number of prenyl groups added 1 [2]: 4

YG292 ({CH2CO}-[dY]IRRPWVPIIYLGC; thioether N-14 (inferred))
Peak intensity, The number of prenyl groups added 0 [3]: 2 | Peak intensity, The number of prenyl groups added 1 [3]: 5

YG293 ({CH2CO}-[dY]TFRDVWIFYGSLLSRC; thioether N-17 (inferred))
Peak intensity, The number of prenyl groups added 0 [3]: 3 | Peak intensity, The number of prenyl groups added 1 [3]: 4

YG293-MaL4 ({CH2CO}-[dY]TFRDVWIFYGSLLSRC; thioether N-17 (inferred))
Peak intensity, The number of prenyl groups added 0 [2]: 1 | Peak intensity, The number of prenyl groups added 1 [2]: 5

YG295 ({CH2CO}-[dY]ISWNEFNSPNWRFITC; thioether N-17 (inferred); not fully specified)
Peak intensity, The number of prenyl groups added 0 [3]: 4 | Peak intensity, The number of prenyl groups added 1 [3]: 3 | Peak intensity, The number of prenyl groups added 2 [3]: 1

YG295-aML5 ({CH2CO}-[dY]ISWNEFNSPNWRFITC; thioether N-17 (inferred))
Peak intensity, The number of prenyl groups added 0 [2]: 1 | Peak intensity, The number of prenyl groups added 1 [2]: 5 | Peak intensity, The number of prenyl groups added 2 [2]: 1

YG296 ({CH2CO}-[dY]WYYAWDQTYKAFPC; thioether N-15 (inferred))
Peak intensity, The number of prenyl groups added 0 [3]: 3 | Peak intensity, The number of prenyl groups added 1 [3]: 2 | Peak intensity, The number of prenyl groups added 2 [3]: 1

YG296-aMD5 ({CH2CO}-[dY]WYYAWDQTYKAFPC; thioether N-15 (inferred))
Peak intensity, The number of prenyl groups added 0 [2]: 5 | Peak intensity, The number of prenyl groups added 1 [2]: 3 | Peak intensity, The number of prenyl groups added 2 [2]: 1

YG297 ({CH2CO}-[dY]RQFNRRTHEVWNLDC; thioether N-16 (inferred))
Peak intensity, The number of prenyl groups added 0 [3]: 5 | Peak intensity, The number of prenyl groups added 1 [3]: 4

YG298: YG280 mutant having only the N-terminal Trp residue remained ({CH2CO}-[dW]LNGDNNYSTPC; thioether N-12)
prenylation modification with KgpF (MALDI-TOF-MS) [1]: no modified product was found

YG299 (Ac-[dY]CDVSGRWGYFPC; thioether (positions not given here); not fully specified (bridges))
Peak intensity, The number of prenyl groups added 0 [3]: 3 | Peak intensity, The number of prenyl groups added 1 [3]: 5

YG300-CM11(RFG > NWS): artificial cyclic peptide, template YCDVSGNWSYPC (SEQ ID NO 239)
DMAPP adduct 1 [1]: 4 | DMAPP adduct 0 [1]: 2

YG304-YG280(FFWFF): artificial cyclic peptide, template YLNGDFFWFFPC (SEQ ID NO 246) ({CH2CO}-[dY]LNGDFFWFFPC; thioether N-12)
DMAPP adduct 1 [1]: 3 | DMAPP adduct 0 [1]: 4

YG386 ({CH2CO}-[dY]VWCYPRG; thioether N-4)
Peak intensity, The number of prenyl groups added 0 [4, 5]: 1 | Peak intensity, The number of prenyl groups added 1 [4, 5]: 5

YG390 ({CH2CO}-[dY]RVWGYPC; thioether N-8)
Peak intensity, The number of prenyl groups added 0 [4, 5]: 1 | Peak intensity, The number of prenyl groups added 1 [4, 5]: 5

YG395 ({CH2CO}-[dY]HDYRVWGYHTPC; thioether N-13 (inferred))
Peak intensity, The number of prenyl groups added 0 [4, 6]: 1 | Peak intensity, The number of prenyl groups added 1 [4, 6]: 5

YG402 ({CH2CO}-[dY]WGHDYRVYHTYPC; thioether N-14 (inferred))
Peak intensity, The number of prenyl groups added 0 [4, 7]: 5 | Peak intensity, The number of prenyl groups added 1 [4, 7]: 1

YG411 ({CH2CO}-[dY]HDYRYHTYPVWGC; thioether N-14 (inferred))
Peak intensity, The number of prenyl groups added 0 [4, 7]: 1 | Peak intensity, The number of prenyl groups added 1 [4, 7]: 5
